Cc1cccc(C(=O)O)c1[N+](=O)[O-]
solubility (mole fraction)
Settings	in 1,4-dioxane	in NMP	in acetone	in acetonitrile	in ethanol	in ethyl acetate	in isopropanol	in methanol	in n-propanol
283.15 K	–	0.0128	0.0253	0.00464	0.0103	0.00907	0.00877	0.0097	0.00792
285.65 K	0.0281	0.0141	0.0265	0.00501	0.0111	0.00965	0.00946	0.0104	0.00845
288.15 K	0.0303	0.0154	0.0277	0.00543	0.012	0.0102	0.0102	0.0112	0.00895
290.65 K	0.0324	0.0168	0.0291	0.00588	0.013	0.0108	0.011	0.012	0.00955
293.15 K	0.0346	0.0184	0.0305	0.00633	0.014	0.0115	0.0118	0.0129	0.0102
295.65 K	0.0371	0.0201	0.0318	0.00684	0.0152	0.0121	0.0126	0.0138	0.0109
298.15 K	0.0396	0.0218	0.0333	0.00737	0.0165	0.0128	0.0136	0.0149	0.0116
300.65 K	0.0424	0.0234	0.0347	0.00788	0.0179	0.0136	0.0145	0.0159	0.0124
303.15 K	0.0452	0.0254	0.0364	0.00846	0.0193	0.0144	0.0153	0.0171	0.0133
305.65 K	0.0483	0.0273	0.0379	0.00915	0.0207	0.0151	0.0163	0.0183	0.0141
308.15 K	0.0512	0.0296	0.0396	0.00984	0.0223	0.016	0.0175	0.0196	0.0151
310.65 K	0.0543	0.032	0.0414	0.0106	0.0238	0.017	0.0186	0.0209	0.016
313.15 K	0.0577	0.0345	0.0432	0.0113	0.0257	0.018	0.0198	0.0223	0.0169
315.65 K	0.0609	0.0372	0.045	0.0121	0.0276	0.019	0.021	0.0237	0.0178
318.15 K	0.0646	0.0405	0.0466	0.0128	0.0296	0.02	0.0224	0.0252	0.0188

Source: BigSolDB 2.1
